# Tests used:
# E. coli 70S ribosomes [1] = experiment: Direct equilibrium binding of BODIPY-CAM measured by fluorescence anisotropy; conditions: BODIPY-CAM 4 nM, ribosomes 5 nM to 5 µM, 30 min; read-out: Apparent dissociation constant KDapp, direct equilibrium binding
# Experimental: The apparent dissociation constant of BODIPY-CAM (KDapp = 3.5 ± 0.9 µM) was determined by its direct equilibrium binding to E. coli 70S ribosomes (Figure S1B). A solution of BODIPY-CAM (4 nM) in the buffer containing 20 mM HEPES-KOH (pH 7.5), 50 mM NH4Cl, 10 mM Mg(CH3COO)2, 4 mM β-mercaptoethanol, and 0.05% Tween-20 was mixed with ribosomes in the range of concentrations from 5 nM to 5 μM, incubated for 30 min, and the values of fluorescence anisotropy were measured.
# Chen C.- W. et al. Supplementary Inform ation P age | 6of 10 […]
# Fi g u re S1. Binding of BODIPY-CAM to E. coli 70S ribosomes measu re d b y f lu orescence an isot rop y.
# (A) Chemical structure of fluorescent analog of chloramphenicol BODIPY-CAM. (B) Equilibrium binding isotherm of BODIPY-CAM to E. coli 70S ribosomes.Non -linear regression anal ysis of obt ained data yi elded an apparent dissociation constant of BO D IP Y -CAM ( KDapp = 3.5 ± 0.9 µM).
# (1 picture or pasted object on this page, not shown here)
# [2] = tested on: E. coli BW25113 ΔtolC pDualRep2 reporter strain; experiment: In vivo dual-reporter (pDualrep2) assay on agar plate: Katushka2S / RFP induction and growth inhibition zone; assay type: cell-based; conditions: overnight 37 °C; for Induction of fluorescent reporters (Katushka2S = ribosome stalling; RFP = DNA damage/SOS response): drops of DMSO solutions (CAM-C4-TPP 20 mM, C4-TPP 20 mM, CAM 2 mM, CHL 2 mM, ERY 6.8 mM, LEV 69 nM)
# Excerpt: Since CAM-C4-TPP is a semi-synthetic analog of the PTC-targeting antibiotic CHL, we expected that, similar to CHL, CAM-C4-TPP would also bind and act upon the bacterial ribosome inhibiting protein synthesis. However, we could not rule out the possibility that the presence of the additional TPP group could alter the intracellular target of the CAM-C4-TPP molecule. To check whether protein synthesis remains the primary target of CAM-C4-TPP action in the bacterial cells, we used an E. coli-based in vivo reporter system that is designed for screening of inhibitors targeting either DNA replication or protein synthesis.
# (§1) Figure 2 CAM-C4-TPP is a potent inhibitor of protein synthesis both in vivo and in vitro. (A) In vivo testing of CAM-C4-TPP activity using E. coli BW25113 ΔtolC pDualRep2 reporter strains. The induction of the red fluorescent protein (RFP) expression (green halo around the inhibition zone) is triggered by DNA-damage, while the induction of Katushka2S protein (red halo) occurs in response to ribosome stalling. Levofloxacin (LEV), erythromycin (ERY), and chloramphenicol (CHL) are used as controls. This image is an overlay of the two images from the independent detections of RFP (Cy3 mode) or Ktushka2S (Cy5 mode) by ChemiDoc MP (Bio-Rad) with RFP fluorescence shown in green pseudocolor and Katushka2S fluorescence shown in red pseudocolor. (B,C) Competition-binding assay to test the displacement of fluorescently labeled BODIPY-CAM (B) or BODIPY-ERY (C) analogs from the E. coli 70S ribosomes in the presence of increasing concentrations of CAM (open diamonds), CHL (blue squares), or CAM-C4-TPP (red circles) measured by fluorescence anisotropy. All reactions were repeated three times. Error bars represent standard deviation. ND, no displacement. The resulting values for apparent dissociation constants (KDapp) are shown on each plot. (D) Inhibition of protein synthesis by increasing concentrations of CHL (blue squares) or CAM-C4-TPP (red circles) in the in vitro cell-free transcription-translation coupled system. The relative enzymatic activity of in vitro synthesized firefly luciferase is shown. Error-bars represent standard deviations of the mean of three independent measurements. TEXT PRINTED IN THE PICTURE: (D) CHL: IC50, μM: 2.8±0.5 | (D) CAM-C4-TPP: IC50, μM: 0.9±0.2 | (B) CAM: KDApp, μM: 420±240 | (B) CHL: KDApp, μM: 2.6±1.5 | (B) CAM-C4-TPP: KDApp, μM: 0.6±0.4 | (C) CAM: KDApp, μM: ND | (C) CHL: KDApp, μM: 2.8±0.5 | (C) CAM-C4-TPP: KDApp, μM: 0.61±0.07
# For the in vivo bioactivity test (Figure 2A), we used the reporter strain BW25113ΔtolC-pDualrep2 as described previously. Briefly, 1.5 µL of the solutions of CAM-C4-TPP (20 mM), C4-TPP (20 mM), CAM (2 mM), and 1 µL of the solutions of CHL (2 mM), erythromycin (ERY, 6.8 mM), and levofloxacin (LEV, 69 nM) in DMSO were applied onto the agar plate that already contained a lawn of the reporter strain. After overnight incubation at 37 °C, the plate was scanned by ChemiDoc (Bio-Rad, USA) using “Cy3-blot” mode for RFP fluorescence and “Cy5-blot” mode for Katushka2S fluorescence.
# E. coli 70S ribosomes [3] = experiment: Competition-binding assay, displacement of BODIPY-CAM measured by fluorescence anisotropy; conditions: for Kd: BODIPY-CAM 30 nM, ribosomes 2.9 µM, 25 °C, pH 7.5, n=3, read-out: Apparent dissociation constant KDapp, displacement of BODIPY-CAM
# Excerpt: (§2) Figure 2 CAM-C4-TPP is a potent inhibitor of protein synthesis both in vivo and in vitro. (A) In vivo testing of CAM-C4-TPP activity using E. coli BW25113 ΔtolC pDualRep2 reporter strains. The induction of the red fluorescent protein (RFP) expression (green halo around the inhibition zone) is triggered by DNA-damage, while the induction of Katushka2S protein (red halo) occurs in response to ribosome stalling. Levofloxacin (LEV), erythromycin (ERY), and chloramphenicol (CHL) are used as controls. This image is an overlay of the two images from the independent detections of RFP (Cy3 mode) or Ktushka2S (Cy5 mode) by ChemiDoc MP (Bio-Rad) with RFP fluorescence shown in green pseudocolor and Katushka2S fluorescence shown in red pseudocolor. (B,C) Competition-binding assay to test the displacement of fluorescently labeled BODIPY-CAM (B) or BODIPY-ERY (C) analogs from the E. coli 70S ribosomes in the presence of increasing concentrations of CAM (open diamonds), CHL (blue squares), or CAM-C4-TPP (red circles) measured by fluorescence anisotropy. […]
# The amphenicol moieties of CAM-C4-TPP, its parent CHL, and the fluorescent derivative BODIPY-CAM are expected to have identical ribosome binding sites and, therefore, these compounds are expected to compete with each other for binding to the ribosome. […] The apparent dissociation constants KDapp of CHL determined from the displacement of BODIPY-CAM (2.6 ± 1.5 µM) or BODIPY-ERY (2.8 ± 0.5 µM) are consistent with each other and with the previously published data, including data determined by direct [^14C]-CHL binding (2.3 µM [30]). […]
# (§3) Binding affinities of CHL analog CAM-C4-TPP, as well as other tested compounds, for the E. coli ribosome (Figure 2B,C) were analyzed by a competition-binding assay using fluorescently labeled BODIPY-CAM or BODIPY-ERY as described before. […]
# Solutions of CHL, CAM, CAM-C4-TPP, or C4-TPP in different concentration ranges were added to the pre-formed ribosome/BODIPY-CAM or ribosome/BODIPY-ERY complexes. The mixtures were incubated for 2 h until equilibrium was reached and the values of fluorescence anisotropy were measured. […]
# E. coli 70S ribosomes [4] = experiment: Competition-binding assay, displacement of BODIPY-ERY measured by fluorescence anisotropy; conditions: BODIPY-ERY 16 nM, ribosomes 50 nM, 25 °C, pH 7.5, n=3; read-out: Apparent dissociation constant KDapp, displacement of BODIPY-ERY
# Excerpt: as §2, with “anisotropy. All reactions were repeated three times. Error bars represent standard deviation. ND, no displacement.” for “anisotropy.”
# as §3
# [5] = tested on: cell-free transcription-translation system based on the E. coli S30 extract; experiment: In vitro cell-free transcription-translation inhibition assay, firefly luciferase synthesis; assay type: biochemical; conditions: for IC50 / Concentration at which nearly complete inhibition of protein synthesis was observed: E. coli S30 extract; for IC50: 37 °C, 30 min, n=3; for Concentration at which nearly complete inhibition of protein synthesis was observed: firefly luciferase
# Excerpt: as §1
# To check whether the improved binding of CAM-C4-TPP to the ribosome correlates with stronger inhibition of translation, we tested its ability to interfere with in vitro protein synthesis. […] Thus, CAM-C4-TPP provides a promising foundation for future ribosome-targeting drug development.
# In vitro assessment of inhibition of synthesis of firefly luciferase by the tested compounds (Figure 2D) was accomplished as described previously. Briefly, the in vitro transcribed firefly luciferase mRNA was translated using E. coli S30 Extract System for Linear Templates (Promega, USA). Reactions containing 100 ng of mRNA and […] 0.1 mM of D-luciferin from the Steady-Glo Luciferase Assay System (Promega) were preincubated for 5 min with different concentrations (0.5 µM, 1 µM, 5 µM, 10 µM, 30 µM, 50 µM, 100 µM) of the tested compounds and carried out in 5-µL aliquots at 37 °C for 30 min. The activity of in vitro synthesized luciferase was measured by VICTOR X5 Multilabel Plate Reader (Perkin Elmer, USA) every 30 s. Calculations of the IC50 values for the tested compounds were carried out using GraphPad Prism software.
# [6] = tested on: ribosome stalling on rst1 and rst2 mRNAs; experiment: Toe-printing (primer extension inhibition) on rst1 and rst2 mRNAs in a cell-free translation system; assay type: biochemical; conditions: 30 µM compound
# Excerpt: The inhibition of protein synthesis by the PTC-targeting antibiotics depends on the amino-acid sequence of the nascent polypeptide chain and the identity of the incoming aminoacyl-tRNA in the A site of the ribosome. For example, CHL arrests translation only when alanine, and to a lesser extent, serine or threonine appear in the penultimate position (E site) of the growing polypeptide chain and only if there is no glycyl-tRNA in the A site of the ribosome. […] This method allows unambiguous identification of the drug-induced ribosome stalling site along the mRNA with a single nucleotide precision. This technique also allows for the determination of the context-specificity of drug action. A large set of ribosome-targeting antibiotics has been previously tested by toe-printing using rst1 or rst2 mRNAs as templates, because their sequences contain codons for almost all proteinogenic amino acids. Therefore, in order to be able to directly compare our results for CAM-C4-TPP with those for other antibiotics, we have chosen exactly the same experimental system.
# Nevertheless, in the presence of CAM-C4-TPP, a fraction of ribosomes manages to escape the start codon, continues translation, and stalls at later codons within the ORF (Figure 6A,B, lanes 3 and 6).
# Figure 6 CAM-C4-TPP is capable of arresting translation at the start codon. […]
# ribosome = molecular target: ribosome; design: method as in PMID 4563072; conditions: read-out: Dissociation constant by direct [14C]-CHL binding; cited from earlier work
Compound,Induction of fluorescent reporters (Katushka2S = ribosome stalling; RFP = DNA damage/SOS response) [2],Kd (E. coli 70S ribosomes [3]),Kd (E. coli 70S ribosomes [4]),IC50 [5],Concentration at which nearly complete inhibition of protein synthesis was observed [5],Drug-induced ribosome stalling sites (toe-printing) [6],further results
CC1=CC(C)=[N+]2C1=Cc1ccc(CCCCC(=O)NC(CO)C(O)c3ccc([N+](=O)[O-])cc3)n1[B-]2(F)F (centres unmarked) [BODIPY-CAM],,,,,,,Kd (E. coli 70S ribosomes [1]): 3.5 ± 0.9 µM
"O=C(O)CCCC[P+](c1ccccc1)(c1ccccc1)c1ccccc1.[Br-] [C4-TPP, (4-Carboxybutyl)triphenyl-phosphonium bromide]",does not induce any of the two reporters,,,,,,Bacterial cell growth inhibition (inhibition zone) ([2]; 1.5 µL of C4-TPP 20 mM or CAM 2 mM): inhibits bacterial cell growth
O=C(CCCC[P+](c1ccccc1)(c1ccccc1)c1ccccc1)N[C@H](CO)[C@H](O)c1ccc([N+](=O)[O-])cc1 [CAM-C4-TPP],"the expression of the fluorescent protein Katushka2S, but not of RFP, was strongly activated",0.6 ± 0.4 µM,0.61 ± 0.07 µM,0.9 ± 0.2 µM,~ 10 µM,causes a significant portion of the ribosomes to stall at the initiator codons,Fold higher affinity for the ribosome compared to parent CHL (E. coli 70S ribosomes [3]; both displacement assays (BODIPY-CAM and BODIPY-ERY)): ~ 5 fold; Fold better IC50 compared to CHL ([5]; in vitro translation of firefly luciferase): more than 3 fold
"O=C(N[C@H](CO)[C@H](O)c1ccc([N+](=O)[O-])cc1)C(Cl)Cl [CHL, chloramphenicol]",induce expression of far-red fluorescent protein reporter Katushka2S,2.6 ± 1.5 µM,2.8 ± 0.5 µM,2.8 ± 0.5 µM,~ 10 µM,predominant ribosome stalling when the 6th serine (Ser6) or 4th alanine (Ala4) residues appeared in the penultimate position,Kd (ribosome): 2.3 µM
CC[C@H]1OC(=O)[C@H](C)[C@@H](O[C@H]2C[C@@](C)(OC)[C@@H](O)[C@H](C)O2)[C@H](C)[C@@H](O[C@@H]2O[C@H](C)C[C@H](N(C)C)[C@H]2O)[C@](C)(O)C[C@@H](C)C(=O)[C@H](C)[C@@H](O)[C@]1(C)O [erythromycin],induce expression of far-red fluorescent protein reporter Katushka2S,,,,,,
C[C@H]1COc2c(N3CCN(C)CC3)c(F)cc3c(=O)c(C(=O)O)cn1c23 [levofloxacin],induce expression of Red Fluorescent Protein (RFP) reporter,,,,,,
